Assay results from ChEMBL document CHEMBL4184115, “In vitro and in silico evaluations of diarylpentanoid series as α-glucosidase inhibitor” (Bioorg Med Chem Lett, 2018).

Key:
Alpha glucosidase [1] = molecular target: T1, Alpha glucosidase (Homo sapiens, UniProt O43451+P10253+P14410+Q2M2H8); assay: Inhibition of alpha-glucosidase (unknown origin) at 50 uM using 4-Nitrophenyl-alpha-D-glucopyranoside as substrate incubated foe 5 mins followed by substrate addition measured after 15 mins relative to control; type: protein assay
Alpha glucosidase [2] = molecular target: T1, Alpha glucosidase; assay: Inhibition of alpha-glucosidase (unknown origin) using 4-Nitrophenyl-alpha-D-glucopyranoside as substrate incubated foe 5 mins followed by substrate addition measured after 15 mins; type: protein assay

Compound	inhibition (Alpha glucosidase [1])	IC50 (Alpha glucosidase [2])
O=C(/C=C(O)/C=C/c1cc(O)ccc1O)c1ccc(O)cc1O	86.6%	20 µM
O=C1/C(=C/c2ccccc2)CCC/C1=C\c1ccccc1F	43%	
O=C(/C=C(O)/C=C/c1cc(O)ccc1O)c1cc(O)ccc1O	96.9%	19.6 µM
O=C(/C=C(O)/C=C/c1ccc(O)cc1)c1ccccc1O	20.4%	
O=C1/C(=C/c2ccccc2)CCC/C1=C\c1ccc(Br)cc1	29.1%	
COc1ccc(/C=C2\CCC/C(=C\c3ccccc3)C2=O)c(OC)c1	41%	
Cc1cccc(/C=C2\CCC/C(=C\c3ccccc3)C2=O)c1	47.9%	
COc1cc(/C=C2\CCC/C(=C\c3ccccc3)C2=O)cc(OC)c1OC	16.3%	
O=C(/C=C(O)/C=C/c1ccc(O)c(O)c1)c1ccccc1O	93.6%	14.3 µM
Cc1ccc(/C=C2\CCC/C(=C\c3ccccc3)C2=O)cc1	34.1%	
O=C1/C(=C/c2ccccc2)CCC/C1=C\c1cccc(Cl)c1Cl	44%	
O=C(/C=C(O)/C=C/c1ccc(O)cc1O)c1ccccc1O	61.2%	40.7 µM
O=C1/C(=C/c2ccccc2)CCC/C1=C\c1cccc(Br)c1	27.2%	
O=C(C1=C(O)/C(=C/c2ccc(O)c(O)c2)CCC1)c1ccccc1	55.9%	41 µM
O=C1/C(=C/c2ccccc2)CCC/C1=C\c1ccc(F)c(F)c1	37.8%	
O=C1/C(=C/c2ccccc2)CCC/C1=C\c1ccccc1Cl	43%	
O=C1/C(=C/c2ccccc2)CCC/C1=C\c1cccc(F)c1	39.8%	
COc1ccc(/C=C2\CCC/C(=C\c3ccccc3)C2=O)cc1	31.4%	

Compound	inhibition (Alpha glucosidase [1])	IC50 (Alpha glucosidase [2])
O=C1/C(=C/c2ccccc2)CCC/C1=C\c1ccccc1Br	46.8%	
O=C(C1=C(O)/C(=C/c2cccc(O)c2)CCC1)c1ccccc1	43.2%	
O=C1/C(=C/c2ccccc2)CCC/C1=C\c1cccc(O)c1	65.1%	28.4 µM
O=C1/C(=C/c2ccccc2)CCC/C1=C\c1ccc(O)cc1	53%	42.3 µM
O=C(/C=C(O)/C=C/c1cccc(O)c1)c1ccccc1O	40.4%	
COc1cccc(/C=C2\CCC/C(=C\c3ccccc3)C2=O)c1OC	31.8%	
O=C1/C(=C/c2ccccc2)CCC/C1=C\c1ccc(O)c(O)c1	90.7%	20.3 µM
O=C1/C(=C/c2ccccc2)CCC/C1=C\c1ccc(Cl)c(Cl)c1	48.4%	
O=C(/C=C(O)/C=C/c1ccc(O)cc1)c1cc(Cl)ccc1O	45.3%	
O=C(/C=C(O)/C=C/c1cccc(O)c1)c1cc(Cl)ccc1O	62.4%	36.4 µM
O=c1c(O)c(-c2ccc(O)c(O)c2)oc2cc(O)cc(O)c12 [QUERCETIN]	83.6%	7.8 µM
O=C(/C=C(O)/C=C/c1ccc(O)c(O)c1)c1cc(Cl)ccc1O	85.6%	15.1 µM
O=C(/C=C(O)/C=C/c1ccco1)c1cc(O)ccc1O	98.4%	14.1 µM
O=C1/C(=C/c2ccccc2)CCC/C1=C\c1ccc(Cl)cc1	27.6%	
COc1ccc(OC)c(/C=C2\CCC/C(=C\c3ccccc3)C2=O)c1	43.8%	
O=C1/C(=C/c2ccccc2)CCC/C1=C\c1ccc(F)cc1	34%	
O=C(C1=C(O)/C(=C/c2ccc(O)cc2)CCC1)c1ccccc1	34.9%	
